Measured values published in patent EP1874311B1, “A METHOD FOR PREVENTING, DELAYING OR REVERTING ABNORMAL AMYLOID DEPOSITION” (Research & Innovation S.p.A., priority 2005, dated 2006).
Like-named read-outs stand apart in the source and are kept apart here. Marks after values point to notes of the source that are not given here.

Legend:
[1] = tested on: H4/APP cells; test: Secretion of total beta-amyloid into culture medium of H4/APP cells (ELISA); format: cell-based, Human; settings: for activity at 10 µM / activity at 30 µM: read-out: beta-amyloid concentration in culture medium; for beta-amyloid concentration in culture medium: h4/app cells, 120 min
Experimental: Human neuroglioma (H4) cells, stably transfected with the gene codifying for the human protein APP695 having mutations related to Alzheimer disease, have been used.
Cells were grown in OPTI-MEM containing 10% FBS (foetal bovine serum), hygromycin (0.2 mg/ml) and blasticidine (0.002 mg/ml).
The Aβ peptide in cells is produced by the sequential processing of beta- and gamma-secretases proteases and is then secreted in the culture medium.
Peptide concentration in the extracellular medium was measured using a specific ELISA methodology.
Confluent H4/APP cells where incubated for 2 h with the vehicle (0.1 % DMSO) or with nicardipine at different concentrations (3µM, 10µM, 30µM), beta-amyloid concentration in culture medium is expressed as % control

[2] = tested on: TG2576 mice; test: Plasma amyloidogenic Aβ peptides in TG2576 mice after i.p. administration (ELISA); format: in vivo; settings: 3 hours after 10 mg/kg i.p.; for Aβ1-42 (%) / Total Aβ (%): before treatment = 100
Experimental: The selected dihydropyridine, nicardipine (see table 2) as well as nimodipine were administered, in TG2576 animals, at dose of 10 mg/Kg i.p. Animals were bleed before treatment for assessment of basal circulating Aβ peptides as well as 3 hours post-treatment. Determination of blood amyloidogenic Aβ peptide concentration was performed using ELISA technique.
Table 2 Levels of the amyloidogenic peptides in plasma of TG2576 mice before and 3 hours following administration of the exemplified dihydropyridines

[3] = Homo sapiens, 10µM, 2 h incubation, confluent H4/APP cells, vehicle = 100
[4] = Homo sapiens, 30µM, 2 h incubation, confluent H4/APP cells, vehicle = 100

| Compound | Aβ1-42 (%) [2] [%] | Total Aβ (%) [2] [%] | activity at 10 µM [1, 3] [%] | activity at 30 µM [1, 4] [%] | other results |
| --- | --- | --- | --- | --- | --- |
| COC(=O)C1=C(C)NC(C)=C(C(=O)OCCCN2CCC(c3ccccc3)(c3ccccc3)CC2)C1c1cccc([N+](=O)[O-])c1 (single isomer, unassigned; (+)) [(+)Niguldipine, (+)niguldipine] | – | – | – | – | activity at 10 µM ([1]; Homo sapiens, 2 h): 71%; activity at 30 µM ([1]; Homo sapiens, 2 h): 43%; inhibition at 30 µM ([1]; Homo sapiens, read-out: inhibition of the extracellular amount of Aβ peptides): 57% |
| COC(=O)C1=C(C)NC(C)=C(C(=O)OCCCN2CCC(c3ccccc3)(c3ccccc3)CC2)C1c1cccc([N+](=O)[O-])c1 (single isomer, unassigned; (-)) [(-)Niguldipine, (-)niguldipine] | – | – | – | – | inhibition of the extracellular amount of Aβ peptides ([1]; 30 µM): 53%; beta-amyloid concentration in culture medium ([1]; 10 µM): 68* % control; beta-amyloid concentration in culture medium ([1]; 30 µM): 47* % control |
| COCCOC(=O)C1=C(C)NC(C)=C(C(=O)OC(C)C)C1c1cccc([N+](=O)[O-])c1 (stereo not shown) [Nimodipine, nimodipine] | 156 | 87 | – | – | Total Aβ (pM) ([2]; n=7): 759,1±27,0 pM |
| COC(=O)C1=C(C)NC(C)=C([N+](=O)[O-])C1c1ccccc1C(F)(F)F (stereo not shown) [BayK 8644] | – | – | 98 | 96 | beta-amyloid content in culture media from H4/APP cells ([1]; result in words): did not affect |
| COC(=O)C1=C(C)NC(C)=C(C(=O)OCCN(C)Cc2ccccc2)C1c1cccc([N+](=O)[O-])c1 (stereo not shown) [Nicardipine, nicardipine] | 176 | 170 | 62 | 58 | – |
